Data: ChEMBL document CHEMBL3351528, “Targeting dopamine D3 and serotonin 5-HT1A and 5-HT2A receptors for developing effective antipsychotics: synthesis, biological characterization, and behavioral studies” (J Med Chem, 2014)
Calls of active or inactive are those of the source. The rule behind the calls is not given here.

Experiments:
[1] = organism: Mus musculus; test: animal or person; conditions: NMRI, sc; for minimal effective dose: read-out: MED
Description: Antipsychotic-like activity in sc dosed NMRI mouse assessed as reduction in PCP-induced locomotor activity dosed 15 to 30 mins before administration of methamphetamine measured for 60 mins

[2] = tested on: Mus musculus; test: Antipsychotic-like activity in NMRI mouse assessed as reduction in […]-induced locomotor activity at 1 mg/kg, sc dosed 15 to 30 mins before administration of methamphetamine measured for 60 mins; format: functional, organism-based; parameters: dose 1 mg/kg
[3] = organism: Mus musculus; conditions: in vivo, sc, 0.5 h
Description: Effect on spontaneous exploratory locomotor activity in sc dosed NMRI mouse measured for 30 mins with activity counts each 5 mins

[4] = organism: Mus musculus; test: animal or person; conditions: NMRI, sc; for minimal effective dose: read-out: MED; remark: listed apart in the source
Description: Antipsychotic-like activity in sc dosed NMRI mouse assessed as reduction in methamphetamine-induced locomotor activity dosed 15 to 30 mins before administration of methamphetamine measured for 60 mins

[5] = tested on: Mus musculus; test: Toxicity in mouse assessed as induction of memory impairment by measuring […] to enter dark compartment at 10 mg/kg, po administered 30 mins before training by passive avoidance test; format: organism-based; parameters: dose 10 mg/kg, route oral; conditions: in vivo, 0.5 h
[6] = target: D(3) dopamine receptor (Homo sapiens, UniProt P35462)
Sequence of D(3) dopamine receptor (P35462 whole entry): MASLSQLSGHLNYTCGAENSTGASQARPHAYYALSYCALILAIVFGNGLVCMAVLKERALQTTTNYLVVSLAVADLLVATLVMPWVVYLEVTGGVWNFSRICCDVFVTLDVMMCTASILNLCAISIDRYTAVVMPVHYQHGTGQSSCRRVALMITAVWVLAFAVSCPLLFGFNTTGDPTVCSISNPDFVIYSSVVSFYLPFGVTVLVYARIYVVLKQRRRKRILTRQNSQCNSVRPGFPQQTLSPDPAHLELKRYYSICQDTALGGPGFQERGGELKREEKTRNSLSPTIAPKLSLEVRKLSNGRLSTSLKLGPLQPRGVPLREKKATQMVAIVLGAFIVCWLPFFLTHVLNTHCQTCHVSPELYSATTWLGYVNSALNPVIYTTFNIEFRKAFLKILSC
Description: Binding affinity to dopamine D3 receptor (unknown origin)

[7] = target: D(2) dopamine receptor (Homo sapiens, UniProt P14416)
Sequence of D(2) dopamine receptor (P14416 whole entry): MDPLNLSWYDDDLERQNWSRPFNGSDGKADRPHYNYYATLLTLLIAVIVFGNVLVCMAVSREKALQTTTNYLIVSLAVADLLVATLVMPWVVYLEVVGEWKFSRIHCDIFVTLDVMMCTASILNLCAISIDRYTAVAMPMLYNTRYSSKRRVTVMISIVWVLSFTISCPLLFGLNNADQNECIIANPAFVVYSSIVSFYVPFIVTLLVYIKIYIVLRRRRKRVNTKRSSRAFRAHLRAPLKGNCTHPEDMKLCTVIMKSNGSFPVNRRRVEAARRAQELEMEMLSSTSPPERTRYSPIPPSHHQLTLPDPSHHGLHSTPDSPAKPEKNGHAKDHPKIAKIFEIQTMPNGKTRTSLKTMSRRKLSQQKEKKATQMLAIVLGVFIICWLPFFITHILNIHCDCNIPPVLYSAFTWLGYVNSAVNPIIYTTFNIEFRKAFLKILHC
Description: Binding affinity to dopamine D2 receptor (unknown origin)

[8] = target: 5-hydroxytryptamine receptor 2A (Homo sapiens, UniProt P28223)
Sequence of 5-hydroxytryptamine receptor 2A (P28223 whole entry): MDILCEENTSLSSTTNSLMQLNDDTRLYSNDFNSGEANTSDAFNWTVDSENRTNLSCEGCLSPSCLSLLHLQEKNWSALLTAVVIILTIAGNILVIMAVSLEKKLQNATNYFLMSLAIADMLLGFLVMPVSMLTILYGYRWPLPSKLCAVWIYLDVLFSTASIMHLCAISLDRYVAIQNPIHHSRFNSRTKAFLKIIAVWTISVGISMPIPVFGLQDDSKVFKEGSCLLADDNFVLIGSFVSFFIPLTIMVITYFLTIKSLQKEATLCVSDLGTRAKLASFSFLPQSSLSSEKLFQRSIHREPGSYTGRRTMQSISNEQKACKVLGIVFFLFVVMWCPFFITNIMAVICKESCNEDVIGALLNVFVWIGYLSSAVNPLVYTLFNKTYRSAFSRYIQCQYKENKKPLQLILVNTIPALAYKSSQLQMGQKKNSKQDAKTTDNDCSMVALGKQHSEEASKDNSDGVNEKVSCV
Description: Binding affinity to 5HT2A receptor (unknown origin)

[9] = target: T1, 5-hydroxytryptamine receptor 1A (Homo sapiens, UniProt P08908)
T1 sequence (P08908 whole entry): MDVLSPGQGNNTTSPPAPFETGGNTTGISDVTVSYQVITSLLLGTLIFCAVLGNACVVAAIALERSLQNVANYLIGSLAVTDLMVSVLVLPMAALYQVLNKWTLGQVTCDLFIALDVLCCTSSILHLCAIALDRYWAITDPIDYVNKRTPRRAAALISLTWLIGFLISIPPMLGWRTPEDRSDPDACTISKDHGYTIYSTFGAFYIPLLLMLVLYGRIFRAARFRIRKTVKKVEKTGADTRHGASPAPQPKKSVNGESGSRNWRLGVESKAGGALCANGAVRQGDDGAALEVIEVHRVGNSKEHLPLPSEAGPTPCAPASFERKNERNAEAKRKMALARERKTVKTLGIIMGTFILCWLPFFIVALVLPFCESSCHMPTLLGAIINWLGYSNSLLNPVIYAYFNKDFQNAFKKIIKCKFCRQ
Description: Binding affinity to 5HT1A receptor (unknown origin)

[10] = tested on: Mus musculus; test: Toxicity in NMRI mouse assessed as induction of sedation at 10 and 30 mg/kg, sc dosed 30 mins before test; format: organism-based; parameters: dose 30 mg/kg, route subcutaneous; conditions: in vivo, 0.5 h
[11] = target: T2, 5-hydroxytryptamine receptor 2C (Homo sapiens, UniProt P28335)
T2 sequence (P28335 whole entry): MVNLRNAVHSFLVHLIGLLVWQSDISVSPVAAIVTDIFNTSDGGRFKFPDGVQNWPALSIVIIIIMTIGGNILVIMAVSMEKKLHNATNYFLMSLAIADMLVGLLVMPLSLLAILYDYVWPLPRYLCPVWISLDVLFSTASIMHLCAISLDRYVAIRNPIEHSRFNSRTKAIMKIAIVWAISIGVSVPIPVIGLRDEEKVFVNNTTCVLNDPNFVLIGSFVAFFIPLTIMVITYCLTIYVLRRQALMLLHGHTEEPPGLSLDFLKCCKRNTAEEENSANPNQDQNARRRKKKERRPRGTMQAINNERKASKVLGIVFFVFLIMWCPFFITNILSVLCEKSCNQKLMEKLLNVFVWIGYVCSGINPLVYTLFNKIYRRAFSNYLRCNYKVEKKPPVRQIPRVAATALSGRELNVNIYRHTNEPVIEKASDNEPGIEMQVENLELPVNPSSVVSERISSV
Description: Binding affinity to 5HT2C receptor (unknown origin)

[12] = tested on: Mus musculus; test: Antipsychotic-like activity in sc dosed NMRI mouse assessed as reduction in MK801-induced locomotor activity dosed 15 to 30 mins before administration of MK801 measured for 60 mins; format: functional; conditions: read-out: MED
[13] = tested on: Heart; test: Cardiotoxicity in Langendorff-perfused Sprague-Dawley rat heart assessed as corrected time duration of ventricular depolarization and repolarization at 10 uM (reference value: 159.41 +/- 11.21 ms); format: toxicity, tissue-based
[14] = tested on: Heart; test: Cardiotoxicity in Langendorff-perfused Sprague-Dawley rat heart assessed as cycle length time at 1 uM (reference value: 203.61 +/- 9.17 ms); format: toxicity, tissue-based
[15] = tested on: Heart; test: Cardiotoxicity in Langendorff-perfused Sprague-Dawley rat heart assessed as heart rate at 0.1 uM (reference value: 296.25 +/- 13.61 bpm); format: toxicity, tissue-based
[16] = tested on: Heart; test: Cardiotoxicity in Langendorff-perfused Sprague-Dawley rat heart assessed as intraventricular conduction time at 0.1 uM (reference value: 12.33 +/- 0.29 ms); format: toxicity, tissue-based, Cardiac ventricle
[17] = tested on: Heart; test: Cardiotoxicity in Langendorff-perfused Sprague-Dawley rat heart assessed as atrioventricular conduction time at 0.01 uM (reference value: 41.98 +/- 2.55 ms); format: toxicity, tissue-based
[18] = tested on: Heart; test: Cardiotoxicity in Langendorff-perfused Sprague-Dawley rat heart assessed as intraventricular conduction time at 10 uM (reference value: 12.33 +/- 0.29 ms); format: toxicity, tissue-based, Cardiac ventricle
[19] = tested on: Heart; test: Cardiotoxicity in Langendorff-perfused Sprague-Dawley rat heart assessed as heart rate at 10 uM (reference value: 296.25 +/- 13.61 bpm); format: toxicity, tissue-based
[20] = tested on: Heart; test: Cardiotoxicity in Langendorff-perfused Sprague-Dawley rat heart assessed as corrected time duration of ventricular depolarization and repolarization at 0.01 uM (reference value: 159.41 +/- 11.21 ms); format: toxicity, tissue-based
[21] = tested on: Heart; test: Cardiotoxicity in Langendorff-perfused Sprague-Dawley rat heart assessed as time duration of ventricular depolarization and repolarization at 10 uM (reference value: 71.61 +/- 4.21 ms); format: toxicity, tissue-based
[22] = tested on: Heart; test: Cardiotoxicity in Langendorff-perfused Sprague-Dawley rat heart assessed as heart rate at 1 uM (reference value: 296.25 +/- 13.61 bpm); format: toxicity, tissue-based
[23] = tested on: Heart; test: Cardiotoxicity in Langendorff-perfused Sprague-Dawley rat heart assessed as atrioventricular conduction time at 10 uM (reference value: 41.98 +/- 2.55 ms); format: toxicity, tissue-based
[24] = tested on: Heart; test: Cardiotoxicity in Langendorff-perfused Sprague-Dawley rat heart assessed as corrected time duration of ventricular depolarization and repolarization at 1 uM (reference value: 159.41 +/- 11.21 ms); format: toxicity, tissue-based
[25] = tested on: Heart; test: Cardiotoxicity in Langendorff-perfused Sprague-Dawley rat heart assessed as time duration of ventricular depolarization and repolarization at 0.01 uM (reference value: 71.61 +/- 4.21 ms); format: toxicity, tissue-based
[26] = tested on: Heart; test: Cardiotoxicity in Langendorff-perfused Sprague-Dawley rat heart assessed as intraventricular conduction time at 0.01 uM (reference value: 12.33 +/- 0.29 ms); format: toxicity, tissue-based, Cardiac ventricle
[27] = tested on: Heart; test: Cardiotoxicity in Langendorff-perfused Sprague-Dawley rat heart assessed as cycle length time at 0.1 uM (reference value: 203.61 +/- 9.17 ms); format: toxicity, tissue-based
[28] = tested on: Heart; test: Cardiotoxicity in Langendorff-perfused Sprague-Dawley rat heart assessed as corrected time duration of ventricular depolarization and repolarization at 0.1 uM (reference value: 159.41 +/- 11.21 ms); format: toxicity, tissue-based
[29] = tested on: Heart; test: Cardiotoxicity in Langendorff-perfused Sprague-Dawley rat heart assessed as cycle length time at 10 uM (reference value: 203.61 +/- 9.17 ms); format: toxicity, tissue-based
[30] = tested on: Heart; test: Cardiotoxicity in Langendorff-perfused Sprague-Dawley rat heart assessed as time duration of ventricular depolarization and repolarization at 1 uM (reference value: 71.61 +/- 4.21 ms); format: toxicity, tissue-based
[31] = tested on: Heart; test: Cardiotoxicity in Langendorff-perfused Sprague-Dawley rat heart assessed as intraventricular conduction time at 1 uM (reference value: 12.33 +/- 0.29 ms); format: toxicity, tissue-based, Cardiac ventricle
[32] = tested on: Heart; test: Cardiotoxicity in Langendorff-perfused Sprague-Dawley rat heart assessed as heart rate at 0.01 uM (reference value: 296.25 +/- 13.61 bpm); format: toxicity, tissue-based
[33] = tested on: Heart; test: Cardiotoxicity in Langendorff-perfused Sprague-Dawley rat heart assessed as atrioventricular conduction time at 0.1 uM (reference value: 41.98 +/- 2.55 ms); format: toxicity, tissue-based
[34] = tested on: Heart; test: Cardiotoxicity in Langendorff-perfused Sprague-Dawley rat heart assessed as time duration of ventricular depolarization and repolarization at 0.1 uM (reference value: 71.61 +/- 4.21 ms); format: toxicity, tissue-based
[35] = tested on: Heart; test: Cardiotoxicity in Langendorff-perfused Sprague-Dawley rat heart assessed as atrioventricular conduction time at 1 uM (reference value: 41.98 +/- 2.55 ms); format: toxicity, tissue-based
[36] = tested on: Heart; test: Cardiotoxicity in Langendorff-perfused Sprague-Dawley rat heart assessed as cycle length time at 0.01 uM (reference value: 203.61 +/- 9.17 ms); format: toxicity, tissue-based
[37] = tested on: Mus musculus; test: Toxicity in NMRI mouse assessed as induction of tremors at 10 mg/kg, sc dosed 30 mins before test; format: organism-based; parameters: dose 10 mg/kg, route subcutaneous; conditions: in vivo, 0.5 h

## CN1CCN(C2=Nc3cc(Cl)ccc3Nc3ccccc32)CC1 [CLOZAPINE]
[1]
  ED50: 2.5 mg/kg
[2]
  Activity: Active
[3]
  ED50: 2.4 mg/kg
[4]
  ED50: 1.1 mg/kg
[5]
  Activity: Toxic

## COc1cccc(N2CCN(CCCCNC(=O)c3cc4ccccc4cn3)CC2)c1
[1]
  minimal effective dose: 10 mg/kg
[6]
  Ki: 9.4 nM
[7]
  Ki: > 1000 nM
[8]
  Ki: 33 nM
[9]
  Ki: 7.9 nM
[3]
  MED: 10 mg/kg
[4]
  minimal effective dose: ≤ 1 mg/kg
[10]
  Activity: Toxic
[11]
  Ki: 190 nM
[12]
  minimal effective dose: 10 mg/kg

## Cl.O=C(NCCCCN1CCN(c2ccccc2)CC1)c1ccc2ncccc2c1
[13]
  Time: 159.76 ms
[14]
  Time: 204.53 ms
[15]
  Activity: 308.58 bpm
[16]
  Time: 12.7 ms
[17]
  Time: 41.95 ms
[18]
  Time: 14.24 ms
[19]
  Activity: 280.67 bpm
[20]
  Time: 158.61 ms
[21]
  Time: 73.96 ms
[22]
  Activity: 297.7 bpm
[23]
  Time: 44.51 ms
[24]
  Time: 158.14 ms
[25]
  Time: 70.61 ms
[26]
  Time: 13.17 ms
[27]
  Time: 194.96 ms
[28]
  Time: 162.06 ms
[29]
  Time: 218.07 ms
[30]
  Time: 71.03 ms
[31]
  Time: 13.38 ms
[32]
  Activity: 302.2 bpm
[33]
  Time: 42.32 ms
[34]
  Time: 71.4 ms
[35]
  Time: 41.51 ms
[36]
  Time: 199.43 ms

## O=C(NCCCCN1CCN(c2ccccc2)CC1)c1cc2ccccc2o1
[1]
  minimal effective dose: ≤ 0.3 mg/kg
[6]
  Ki: 4 nM
[37]
  Activity: Toxic
[7]
  Ki: > 1000 nM
[8]
  Ki: 392 nM
[9]
  Ki: 30 nM
[3]
  MED: <= 0.3 mg kg-1
[4]
  minimal effective dose: ≤ 1 mg/kg
[11]
  Ki: > 1000 nM
[12]
  minimal effective dose: 3 mg/kg
